According to patent publication US9505745B2, “Enhancer of zeste homolog 2 inhibitors” (GlaxoSmithKline Intellectual Property (No.2) Limited, priority 2013, dated 2016):
pIC50: −log10 of the molar value. Counter-ions that a name gives are not always drawn.

What was measured:
[1] = target: T1, EZH2 within the PRC2 complex (Homo sapiens (Human), UniProt Q15910); test: EZH2 methyltransferase SPA, biotinylated histone H3K27 peptide substrate (Assay Protocol 2); assay type: biochemical; settings: 3H-SAM, ≦10 nM approaches limit of detection
T1 sequence (Q15910 whole entry): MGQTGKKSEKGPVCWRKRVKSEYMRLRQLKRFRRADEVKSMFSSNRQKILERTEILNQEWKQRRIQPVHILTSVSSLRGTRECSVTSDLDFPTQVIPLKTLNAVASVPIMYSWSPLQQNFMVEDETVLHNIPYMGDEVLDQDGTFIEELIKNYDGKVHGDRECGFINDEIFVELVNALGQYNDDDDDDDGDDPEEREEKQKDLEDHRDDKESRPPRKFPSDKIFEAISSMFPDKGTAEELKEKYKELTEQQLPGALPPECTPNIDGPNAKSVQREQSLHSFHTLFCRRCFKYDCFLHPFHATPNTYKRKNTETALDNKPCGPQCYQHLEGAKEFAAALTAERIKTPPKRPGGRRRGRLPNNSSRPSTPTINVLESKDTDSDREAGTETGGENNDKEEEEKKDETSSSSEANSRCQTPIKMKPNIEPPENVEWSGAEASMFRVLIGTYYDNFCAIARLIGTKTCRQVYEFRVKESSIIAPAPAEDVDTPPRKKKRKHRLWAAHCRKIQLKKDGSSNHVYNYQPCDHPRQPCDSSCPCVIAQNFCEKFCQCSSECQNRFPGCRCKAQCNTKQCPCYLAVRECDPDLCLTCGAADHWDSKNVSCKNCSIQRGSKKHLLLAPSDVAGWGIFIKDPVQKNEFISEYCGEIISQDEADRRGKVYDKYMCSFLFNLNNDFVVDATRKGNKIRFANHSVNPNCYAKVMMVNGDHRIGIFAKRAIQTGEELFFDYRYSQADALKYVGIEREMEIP
T1 sequence (O75530 whole entry partner): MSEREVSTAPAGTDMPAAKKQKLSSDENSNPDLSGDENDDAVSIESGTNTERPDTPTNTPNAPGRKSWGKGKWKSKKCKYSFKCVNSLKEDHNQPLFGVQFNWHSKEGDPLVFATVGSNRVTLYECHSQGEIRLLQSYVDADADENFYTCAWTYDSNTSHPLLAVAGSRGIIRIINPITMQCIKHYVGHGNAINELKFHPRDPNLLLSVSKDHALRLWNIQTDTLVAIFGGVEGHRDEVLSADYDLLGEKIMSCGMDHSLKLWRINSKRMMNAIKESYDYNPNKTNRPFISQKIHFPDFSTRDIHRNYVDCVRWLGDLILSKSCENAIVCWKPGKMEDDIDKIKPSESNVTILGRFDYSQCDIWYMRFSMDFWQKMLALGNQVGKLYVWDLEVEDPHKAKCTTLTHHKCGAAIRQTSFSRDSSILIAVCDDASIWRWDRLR
T1 sequence (Q15022 whole entry partner): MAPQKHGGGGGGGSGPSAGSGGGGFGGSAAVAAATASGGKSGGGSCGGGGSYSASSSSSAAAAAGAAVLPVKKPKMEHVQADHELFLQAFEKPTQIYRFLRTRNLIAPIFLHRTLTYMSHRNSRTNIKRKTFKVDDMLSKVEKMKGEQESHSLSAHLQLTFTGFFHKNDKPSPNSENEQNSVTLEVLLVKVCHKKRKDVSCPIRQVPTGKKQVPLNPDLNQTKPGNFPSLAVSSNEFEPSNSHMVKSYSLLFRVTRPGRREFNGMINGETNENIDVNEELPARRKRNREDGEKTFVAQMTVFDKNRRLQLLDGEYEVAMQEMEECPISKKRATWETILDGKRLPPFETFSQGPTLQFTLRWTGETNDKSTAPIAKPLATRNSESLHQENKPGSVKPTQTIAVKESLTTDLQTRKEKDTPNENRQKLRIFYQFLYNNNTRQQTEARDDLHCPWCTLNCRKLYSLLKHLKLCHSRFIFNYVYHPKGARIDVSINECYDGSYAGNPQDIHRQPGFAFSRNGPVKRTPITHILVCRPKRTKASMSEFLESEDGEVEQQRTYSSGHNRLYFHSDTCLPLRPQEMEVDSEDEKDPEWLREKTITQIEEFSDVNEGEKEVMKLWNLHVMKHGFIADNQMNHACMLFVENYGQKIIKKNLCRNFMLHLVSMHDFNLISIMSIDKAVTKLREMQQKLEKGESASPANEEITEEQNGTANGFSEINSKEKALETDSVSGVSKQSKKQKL
T1 sequence (Q09028 whole entry partner): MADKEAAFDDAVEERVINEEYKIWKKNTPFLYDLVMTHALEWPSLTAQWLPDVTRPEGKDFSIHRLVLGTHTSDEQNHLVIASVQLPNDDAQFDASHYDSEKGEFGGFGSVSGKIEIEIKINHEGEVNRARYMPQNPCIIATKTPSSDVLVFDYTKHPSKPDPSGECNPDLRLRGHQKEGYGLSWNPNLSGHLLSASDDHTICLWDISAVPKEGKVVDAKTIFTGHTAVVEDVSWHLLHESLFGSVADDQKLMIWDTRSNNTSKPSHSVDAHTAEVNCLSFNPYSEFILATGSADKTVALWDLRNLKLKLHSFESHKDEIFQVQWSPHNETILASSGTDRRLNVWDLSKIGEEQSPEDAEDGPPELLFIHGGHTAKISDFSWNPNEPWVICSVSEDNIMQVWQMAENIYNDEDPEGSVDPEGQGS
T1 sequence (Q6ZN18 whole entry partner): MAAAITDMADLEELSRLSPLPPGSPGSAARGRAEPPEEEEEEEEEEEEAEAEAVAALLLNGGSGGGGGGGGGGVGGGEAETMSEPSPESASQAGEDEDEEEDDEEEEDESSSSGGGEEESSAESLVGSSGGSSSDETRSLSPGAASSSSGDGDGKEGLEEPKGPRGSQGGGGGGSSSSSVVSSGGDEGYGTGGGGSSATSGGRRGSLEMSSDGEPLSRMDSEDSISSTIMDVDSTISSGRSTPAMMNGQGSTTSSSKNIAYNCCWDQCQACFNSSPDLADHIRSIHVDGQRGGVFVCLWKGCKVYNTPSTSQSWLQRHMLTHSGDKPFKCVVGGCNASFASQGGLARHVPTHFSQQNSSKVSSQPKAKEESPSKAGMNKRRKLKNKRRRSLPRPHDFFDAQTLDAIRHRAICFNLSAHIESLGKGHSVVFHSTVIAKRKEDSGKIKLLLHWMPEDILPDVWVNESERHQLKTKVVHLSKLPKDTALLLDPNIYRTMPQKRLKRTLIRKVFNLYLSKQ
Method: Compounds contained herein were evaluated for their ability to inhibit the methyltransferase activity of EZH2 within the PRC2 complex. Human PRC2 complex was prepared by co-expressing each of the 5 member proteins (FLAG-EZH2, EED, SUZ12, RbAp48, AEBP2) in Sf9 cells followed by co-purification. Enzyme activity was measured in a scintillation proximity assay (SPA) where a tritiated methyl group is transferred from 3H-SAM to a lysine residue on a biotinylated, unmethylated peptide substrate derived from histone H3. The peptides were captured on streptavidin-coated SPA beads and the resulting signal was read on a ViewLux plate reader.
(§1) Part A. Compound Preparation
• 4. Prepare 10 mM stock of compounds from solid in 100% DMSO. • 5. Set up an 11-point serial dilution (1:4 dilution, top concentration 10 mM) in 100% DMSO for each test compound in a 384 well plate leaving columns 6 and 18 for DMSO controls. • 6. Dispense 10 nL of compound from the dilution plate into reaction plates (Corning, 384-well polystyrene NBS, Cat#3673). Part B. Reagent Preparation Prepare the following solutions: • 7. 1× Base Buffer, 50 mM Tris-HCl, pH 8, 2 mM MgCl2: Per 1 L of base buffer, combine 1 M Tris-HCl, pH 8 (50 mL), 1 M MgCl2 (2 mL), and distilled water (948 mL). • 8. 1× Assay Buffer: Per 10 mL of 1× Assay Buffer, combine 1× Base Buffer (9.96 mL), 1 M DTT (40 uL), and 10% Tween-20 (1 uL) to provide a final concentration of 50 mM Tris-HCl, pH 8, 2 mM MgCl2, 4 mM DTT, 0.001% Tween-20. • 9. 2× Enzyme Solution: Per 10 mL of 2× Enzyme Solution, combine 1× Assay Buffer (9.99 mL) and 3.24 uM EZH2 5 member complex (6.17 uL) to provide a final enzyme concentration of 1 nM. • 10. SPA Bead Solution: Per 1 mL of SPA Bead Solution, combine Streptavidin coated SPA beads (PerkinElmer, Cat#RPNQ0261, 40 mg) and 1× Assay Buffer (1 mL) to provide a working concentration of 40 mg/mL. • 11. 2× Substrate Solution: Per 10 mL of 2× Substrate Solution, combine 40 mg/mL SPA Bead Solution (375 uL), 1 mM biotinylated histone H3K27 peptide (200 uL), 12.5 uM 3H-SAM (240 uL; 1 mCi/mL), 1 mM cold SAM (57 uL), and 1× Assay Buffer (9.13 mL) to provide a final concentration of 0.75 mg/mL SPA Bead Solution, 10 uM biotinylated histone H3K27 peptide, 0.15 uM 3H-SAM (˜12 uCi/mL 3H-SAM), and 2.85 uM cold SAM. • 12. 2.67× Quench Solution: Per 10 mL of 2.67× Quench Solution, combine 1× Assay Buffer (9.73 mL) and 10 mM cold SAM (267 uL) to provide a final concentration of 100 uM cold SAM. Part C. Assay Reaction in 384-well Grenier Bio-One Plates Compound Addition • 3. Stamp 10 nL/well of 1000× Compound to test wells (as noted above). • 4. Stamp 10 nL/well of 100% DMSO to columns 6 & 18 (high and low controls, respectively). Assay • 10. Dispense 5 uL/well of 1× Assay Buffer to column 18 (low control reactions). • 11. Dispense 5 uL/well of 2× Substrate Solution to columns 1-24 (note: substrate solution should be mixed to ensure homogeneous bead suspension before dispensing into matrix reservoir). • 12. Dispense 5 uL/well of 2× Enzyme Solution to columns 1-17, 19-24. • 13. Incubate the reaction for 60 min at room temperature. Quench • 5. Dispense 6 uL/well of the 2.67× Quench Solution to columns 1-24. • 6. Seal assay plates and spin for ˜1 min at 500 rpm. • 7. Dark adapt plates in the ViewLux instrument for 15-60 min. Read plates • 2. Read the assay plates on the Viewlux Plate Reader utilizing the 613 nm emission filter or clear filter (300 s exposure). Reagent addition can be done manually or with automated liquid handler. Results
(§2) Percent inhibition was calculated relative to the DMSO control for each compound concentration and the resulting values were fit using standard IC50 fitting parameters within the ABASE data fitting software package.

[2] = target: T1, EZH2 within the PRC2 complex; test: EZH2 methyltransferase SPA, mononucleosome substrate (Assay Protocol 1); assay type: biochemical; settings: HeLa mononucleosome substrate, 3H-SAM, ≦10 nM approaches limit of detection
Method: Compounds contained herein were evaluated for their ability to inhibit the methyltransferase activity of EZH2 within the PRC2 complex. Human PRC2 complex was prepared by co-expressing each of the 5 member proteins (FLAG-EZH2, EED, SUZ12, RbAp48, AEBP2) in Sf9 cells followed by co-purification. Enzyme activity was measured in a scintillation proximity assay (SPA) where a tritiated methyl group is transferred from 3H-SAM to a lysine residue on Histone H3 of a mononucleosome, purified from HeLa cells. Mononucleosomes were captured on SPA beads and the resulting signal is read on a ViewLux plate reader.
as §1
• 1. Prepare 10 mM stock of compounds from solid in 100% DMSO. • 2. Set up an 11-point serial dilution (1:3 dilution, top concentration 10 mM) in 100% DMSO for each test compound in a 384 well plate leaving columns 6 and 18 for DMSO controls. • 3. Dispense 100 nL of compound from the dilution plate into reaction plates (Grenier Bio-One, 384-well, Cat#784075). Part B. Reagent Preparation Prepare the following solutions: • 1. 50 mM Tris-HCl, pH 8: Per 1 L of base buffer, combine 1 M Tris-HCl, pH 8 (50 mL) and distilled water (950 mL). • 2. 1× Assay Buffer: Per 10 mL of 1× Assay Buffer, combine 50 mM Tris-HCl, pH 8 (9958 uL), 1 M MgCl2 (20 uL), 2 M DTT (20 uL), and 10% Tween-20 (2 uL) to provide a final concentration of 50 mM Tris-HCl, pH 8, 2 mM MgCl2, 4 mM DTT, 0.002% Tween-20. • 3. 2× Enzyme Solution: Per 10 mL of 2× Enzyme Solution, combine 1× Assay Buffer and PRC2 complex to provide a final enzyme concentration of 10 nM. • 4. SPA Bead Suspension: Per 1 mL of SPA Bead Suspension, combine PS-PEI coated LEADSeeker beads (40 mg) and H2O (1 mL) to provide a final concentration of 40 mg/mL. • 5. 2× Substrate Solution: Per 10 mL of 2× Substrate Solution, combine 1× Assay Buffer (9728.55 uL), 800 ug/mL mononucleosomes (125 uL), 1 mM cold SAM (4 uL), and 7.02 uM 3H-SAM (142.45 uL; 0.55 mCi/mL) to provide a final concentration of 5 ug/mL nucleosomes, 0.2 uM cold SAM, and 0.05 uM 3H-SAM. • 6. 2.67× Quench/Bead Mixture: Per 10 mL of 2.67× Quench/Bead Mixture, combine ddH2O (9358 uL), 10 mM cold SAM (267 uL), 40 mg/mL Bead Suspension (375 uL) to provide a final concentration of 100 uM cold SAM and 0.5 mg/mL SPA beads. Part C. Assay Reaction in 384-well Grenier Bio-One Plates Compound Addition • 1. Dispense 100 nL/well of 100× Compound to test wells (as noted above). • 2. Dispense 100 nL/well of 100% DMSO to columns 6 & 18 for high and low controls, respectively. Assay • 1. Dispense 5 uL/well of 1× Assay Buffer to column 18 (low control reactions). • 2. Dispense 5 uL/well of 2× Enzyme Solution to columns 1-17, 19-24. • 3. Spin assay plates for ˜1 min at 500 rpm. • 4. Stack the assay plates, covering the top plate. • 5. Incubate the compound/DMSO with the enzyme for 30 min at room temperature. • 6. Dispense 5 uL/well of 2× Substrate Solution to columns 1-24. • 7. Spin assay plates for ˜1 min at 500 rpm. • 8. Stack the assay plates, covering the top plate. • 9. Incubate the assay plates at room temperature for 1 hour. Quench/Bead Addition • 1. Dispense 5 uL/well of the 3× Quench/Bead Mixture to columns 1-24. • 2. Seal the top of each assay plate with adhesive TopSeal. • 3. Spin assay plates for ˜1 min at 500 rpm. • 4. Equilibrate the plates for >20 min. Read plates • 1. Read the assay plates on the Viewlux Plate Reader utilizing the 613 nm emission filter with a 300 s read time.
Reagent addition can be done manually or with automated liquid handler. • The final DMSO concentration in this assay is 1%. • The positive control is in column 6; negative control is in column 18. • Final starting concentration of compounds is 100 µM. Results
as §2

Compound | pIC50 [1] | pIC50 [2]
CCN(c1scc(C(=O)NCc2c(C)cc(C(F)(F)F)[nH]c2=O)c1C)[C@H]1CC[C@H](N(C)C)CC1 [Example 17, 5-(((trans)-4-(Dimethylamino)cyclohexyl)(ethyl)amino)-4-methyl-N-((4-methyl-2-oxo-6-(trifluoromethyl)-1,2-dihydropyridin-3-yl)methyl)thiophene-3-carboxamide] | 6.20 | 6.50
CCC(c1scc(C(=O)NCc2c(C)cc(C)[nH]c2=O)c1C)N1CCC(N(C)C)CC1 (centres unmarked) [Example 28, N-((4,6-dimethyl-2-oxo-1,2-dihydropyridin-3-yl)methyl)-5-(1-(4-(dimethylamino)piperidin-1-yl)propyl)-4-methylthiophene-3-carboxamide] | 7.20 | 7.72
Cc1cc(C)c(CNC(=O)c2csc(C(O)C3CCN(C(=O)OC(C)(C)C)CC3)c2C)c(=O)[nH]1 (centres unmarked) [Example 20, tert-Butyl 4-((4-(((4,6-dimethyl-2-oxo-1,2-dihydropyridin-3-yl)methyl)carbamoyl)-3-methylthiophen-2-yl)(hydroxy)methyl)piperidine-1-carboxylate] | 5.80 | 6.80
CCN(c1c(Cl)sc(C(=O)NCc2c(C)cc(C)[nH]c2=O)c1C)C1CCOCC1 [Example 3, 5-Chloro-N-((4,6-dimethyl-2-oxo-1,2-dihydropyridin-3-yl)methyl)-4-(ethyl(tetrahydro-2H-pyran-4-yl)amino)-3-methylthiophene-2-carboxamide] | 6.70 | 7.00
CCOC(=O)N(CC)c1scc(C(=O)NCc2c(C)cc(C)[nH]c2=O)c1C [Example 65, Ethyl (4-(((4,6-dimethyl-2-oxo-1,2-dihydropyridin-3-yl)methyl)carbamoyl)-3-methylthiophen-2-yl)(ethyl)carbamate] | 6.70 | 
Cc1cc(C)c(CNC(=O)c2csc(N3CCCCC3C3CCNCC3)c2C)c(=O)[nH]1 (centres unmarked) [Example 69, 5-([2,4′-Bipiperidin]-1-yl)-N-((4,6-dimethyl-2-oxo-1,2-dihydropyridin-3-yl)methyl)-4-methylthiophene-3-carboxamide hydrochloride] | 6.30 | 

The next compounds have a higher pIC50 [1] than those just listed; values first:

pIC50 [1] | pIC50 [2] | Compound
7.89 | ≥ 8.00 | CCN(c1scc(C(=O)NCc2c(C)cc(C)[nH]c2=O)c1C)[C@H]1CC[C@H](N(C)C)CC1 [Example 8, N-((4,6-dimethyl-2-oxo-1,2-dihydropyridin-3-yl)methyl)-5-(((trans)-4-(dimethylamino)cyclohexyl)(ethyl)amino)-4-methylthiophene-3-carboxamide]
7.30 | ≥ 8.00 | CCN(c1scc(C(=O)NCc2c(C)cc(C)n(C)c2=O)c1C)[C@H]1CC[C@H](N(C)C)CC1 [Example 32, 5-(((trans)-4-(Dimethylamino)cyclohexyl)(ethyl)amino)-4-methyl-N-((1,4,6-trimethyl-2-oxo-1,2-dihydropyridin-3-yl)methyl)thiophene-3-carboxamide]
7.60 |  | CCN(c1sc(C#N)c(C(=O)NCc2c(C)cc(C)[nH]c2=O)c1C)[C@H]1CC[C@H](N(C)C)CC1 [Example 51, 2-Cyano-N-((4,6-dimethyl-2-oxo-1,2-dihydropyridin-3-yl)methyl)-5-(((trans)-4-(dimethylamino)cyclohexyl)(ethyl)amino)-4-methylthiophene-3-carboxamide]
≥ 8.00 |  | CCC(c1scc(C(=O)NCc2c(C)cc(C)[nH]c2=O)c1C)[C@H]1CC[C@H](N(C)C)CC1 (single isomer, unassigned; (+)) [Example 45, (+)-N-((4,6-Dimethyl-2-oxo-1,2-dihydropyridin-3-yl)methyl)-5-(1-((trans)-4-(dimethylamino)cyclohexyl)propyl)-4-methylthiophene-3-carboxamide]
≥ 8.00 |  | CCC(=C1CCNCC1)c1scc(C(=O)NCc2c(C)cc(C)[nH]c2=O)c1C [Example 48, N-((4,6-dimethyl-2-oxo-1,2-dihydropyridin-3-yl)methyl)-4-methyl-5-(1-(piperidin-4-ylidene)propyl)thiophene-3-carboxamide]
